Patent US12559506B2, “Indazole based compounds and associated methods of use” (Arvinas Operations, Inc., priority 2021, dated 2026)
Read-outs that look alike come from different tables or passages of the source.

What was measured:
G2019S LRRK2 = molecular target: T1, G2019S LRRK2 (Homo sapiens, UniProt Q5S007, G2019S); assay: LRRK2 degradation assay, HiBit-tagged G2019S LRRK2 expressed from plasmid in HEK293 cells (Nano-Glo Dual-Luciferase); type: cell-based; settings: 24 hours
T1 construct: expressed in transfected cells; host or cells: HEK293 (ATCC CRL-1573), transient transfection, mammalian expression vector with ubiquitin promoter
T1 sequence (Q5S007 whole entry G2019S): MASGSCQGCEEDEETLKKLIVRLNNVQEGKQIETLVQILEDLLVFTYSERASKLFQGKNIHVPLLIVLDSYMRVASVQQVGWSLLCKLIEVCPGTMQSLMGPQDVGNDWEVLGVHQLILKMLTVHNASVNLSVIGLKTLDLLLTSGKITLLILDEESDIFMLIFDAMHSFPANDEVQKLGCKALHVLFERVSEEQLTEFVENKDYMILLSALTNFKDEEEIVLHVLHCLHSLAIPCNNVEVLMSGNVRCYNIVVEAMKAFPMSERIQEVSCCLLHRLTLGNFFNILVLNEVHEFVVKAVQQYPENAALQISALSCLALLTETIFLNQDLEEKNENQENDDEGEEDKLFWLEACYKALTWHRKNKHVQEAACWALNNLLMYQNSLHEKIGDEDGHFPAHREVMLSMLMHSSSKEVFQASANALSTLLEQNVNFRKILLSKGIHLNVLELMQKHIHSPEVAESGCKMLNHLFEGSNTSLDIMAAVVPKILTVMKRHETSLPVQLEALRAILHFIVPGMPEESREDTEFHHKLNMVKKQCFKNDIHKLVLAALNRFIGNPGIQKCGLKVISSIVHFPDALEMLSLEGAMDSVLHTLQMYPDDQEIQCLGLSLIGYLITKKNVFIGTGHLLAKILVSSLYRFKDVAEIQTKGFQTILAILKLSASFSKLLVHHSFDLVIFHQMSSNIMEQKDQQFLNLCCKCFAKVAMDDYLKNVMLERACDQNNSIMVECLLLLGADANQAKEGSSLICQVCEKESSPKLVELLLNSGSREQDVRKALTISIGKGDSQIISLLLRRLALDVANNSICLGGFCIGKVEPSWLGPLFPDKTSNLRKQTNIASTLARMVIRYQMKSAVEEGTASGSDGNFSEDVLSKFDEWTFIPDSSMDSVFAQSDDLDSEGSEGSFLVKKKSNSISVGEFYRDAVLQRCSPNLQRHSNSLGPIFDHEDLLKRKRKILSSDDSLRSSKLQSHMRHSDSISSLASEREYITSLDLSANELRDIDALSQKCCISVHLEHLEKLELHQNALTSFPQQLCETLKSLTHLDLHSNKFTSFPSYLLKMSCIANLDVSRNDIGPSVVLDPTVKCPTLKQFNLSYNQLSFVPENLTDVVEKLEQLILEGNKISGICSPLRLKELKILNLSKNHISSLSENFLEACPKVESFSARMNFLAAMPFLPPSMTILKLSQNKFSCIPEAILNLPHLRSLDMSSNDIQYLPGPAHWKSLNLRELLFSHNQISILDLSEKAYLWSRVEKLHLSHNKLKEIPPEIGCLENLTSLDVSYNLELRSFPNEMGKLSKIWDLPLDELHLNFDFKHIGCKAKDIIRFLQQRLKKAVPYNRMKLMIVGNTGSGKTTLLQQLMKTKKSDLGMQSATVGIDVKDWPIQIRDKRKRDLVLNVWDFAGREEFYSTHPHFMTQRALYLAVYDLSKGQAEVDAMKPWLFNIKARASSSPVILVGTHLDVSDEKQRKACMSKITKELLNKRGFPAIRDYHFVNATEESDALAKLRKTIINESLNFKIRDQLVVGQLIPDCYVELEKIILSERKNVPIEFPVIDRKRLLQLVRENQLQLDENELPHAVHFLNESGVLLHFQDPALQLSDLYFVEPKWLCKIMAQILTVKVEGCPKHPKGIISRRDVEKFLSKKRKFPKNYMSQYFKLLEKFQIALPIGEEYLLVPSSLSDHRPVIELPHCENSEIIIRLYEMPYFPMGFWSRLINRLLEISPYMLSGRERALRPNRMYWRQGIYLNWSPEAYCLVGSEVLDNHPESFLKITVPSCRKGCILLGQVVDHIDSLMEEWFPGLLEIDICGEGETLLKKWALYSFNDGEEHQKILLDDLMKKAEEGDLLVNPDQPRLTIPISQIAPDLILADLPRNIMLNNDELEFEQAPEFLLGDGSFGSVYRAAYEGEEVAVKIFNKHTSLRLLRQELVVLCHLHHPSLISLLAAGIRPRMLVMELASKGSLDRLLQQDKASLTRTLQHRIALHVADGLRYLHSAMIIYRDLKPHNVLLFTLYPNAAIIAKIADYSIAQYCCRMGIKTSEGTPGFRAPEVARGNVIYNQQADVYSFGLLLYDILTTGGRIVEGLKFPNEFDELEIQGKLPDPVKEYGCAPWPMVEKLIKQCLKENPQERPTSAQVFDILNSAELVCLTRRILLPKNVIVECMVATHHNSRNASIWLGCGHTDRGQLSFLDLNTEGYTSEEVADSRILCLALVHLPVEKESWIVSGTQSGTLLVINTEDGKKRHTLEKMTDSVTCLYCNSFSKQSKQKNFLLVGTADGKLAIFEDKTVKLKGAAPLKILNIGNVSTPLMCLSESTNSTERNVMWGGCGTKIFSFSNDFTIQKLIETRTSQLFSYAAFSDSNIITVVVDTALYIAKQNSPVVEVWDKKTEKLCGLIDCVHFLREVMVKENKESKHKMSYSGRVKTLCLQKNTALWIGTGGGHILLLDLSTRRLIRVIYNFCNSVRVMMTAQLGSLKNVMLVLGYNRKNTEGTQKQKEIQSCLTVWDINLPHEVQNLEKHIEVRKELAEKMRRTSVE
Procedure, shortened: (§1)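 HEK293 cells co-transfected with C-terminal HiBiT-tagged LRRK2 (WT or G2019S, ubiquitin promoter) and firefly luciferase, then dosed 24 h at 37 °C. HiBiT/firefly ratio normalized to DMSO median; DC50 and Dmax from per-plate curve fits, six replicates over two days.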

wildtype LRRK2 = molecular target: T2, wildtype LRRK2 (Homo sapiens, UniProt Q5S007); assay: LRRK2 degradation assay, HiBit-tagged wildtype LRRK2 expressed from plasmid in HEK293 cells (Nano-Glo Dual-Luciferase); type: cell-based; settings: 24 hours; for Dmax: read-out: **WT Dmax (%); for DC50: read-out: *WT DC50
T2 construct: expressed in transfected cells; host or cells: HEK293 (ATCC CRL-1573), transient transfection, mammalian expression vector with ubiquitin promoter
T2 sequence (Q5S007 whole entry): as the sequence (Q5S007 whole entry G2019S) above, with S2019G counted along it
Procedure, shortened: as §1

[1] = HiBit-tagged G2019S LRRK2, HEK293 cells
[2] = HiBit-tagged wildtype LRRK2, HEK293 cells
[3] = HiBit-tagged G2019S LRRK2 in HEK293 cells
[4] = HiBit-tagged wildtype LRRK2 in HEK293 cells

DC50 (G2019S LRRK2; [1]) [nM] | Dmax (G2019S LRRK2; [1]) [%] | Dmax (wildtype LRRK2; [2]) [%] | DC50 (wildtype LRRK2; [2]) [nM] | DC50 (G2019S LRRK2; [3]) [nM] | Dmax (G2019S LRRK2; [3]) [%] | Dmax (wildtype LRRK2; [4]) [%] | DC50 (wildtype LRRK2; [4]) [nM] | Structure (SMILES)
< 10 | < 50 | 50 to 70 | < 10 |  |  |  |  | CC1(Oc2ccc3[nH]nc(-c4cc(N5CCN(C[C@@H]6CN(CC7CCN(c8ccc9c(c8)C(=O)N(C8CCC(=O)NC8=O)C9=O)CC7)CCO6)CC5)ncn4)c3c2)CC1 (stereo partly drawn) [Compound 156, 2-(2,6-dioxo-3-piperidyl)-5-[4-[[(2R)-2-[[4-[6-[5-(1-methylcyclopropoxy)-1H-indazol-3-yl]pyrimidin-4-yl]piperazin-1-yl]methyl]morpholin-4-yl]methyl]-1-piperidyl]isoindoline-1,3-dione]
< 10 | ≥ 70 | 50 to 70 | < 10 |  |  |  |  | CC1(Oc2ccc3[nH]nc(-c4cc(N5CC(CC6CCN(CC7CCN(c8ccc9c(c8)C(=O)N(C8CCC(=O)NC8=O)C9=O)CC7)CC6)C5)ncn4)c3c2)CC1 (centres unmarked) [Compound 164, 2-(2,6-dioxo-3-piperidyl)-5-[4-[[4-[[1-[6-[5-(1-methylcyclopropoxy)-1H-indazol-3-yl]pyrimidin-4-yl]azetidin-3-yl]methyl]-1-piperidyl]methyl]-1-piperidyl]isoindoline-1,3-dione]
 |  |  |  | 10 to 50 | 50 to 70 | 50 to 70 | 10 to 50 | C[C@H]1CN(c2cc(-c3n[nH]c4ccc(OC5CC5)cc34)ncn2)CCN1CC1CCN(CC2CCN(c3ccc4c(c3)C(=O)N(C3CCC(=O)NC3=O)C4=O)CC2)CC1 (stereo partly drawn) [Compound 72, 5-{4-[(4-{[(2S)-4-[6-(5-cyclopropoxy-1H-indazol-3-yl)pyrimidin-4-yl]-2-methylpiperazin-1-yl]methyl}piperidin-1-yl)methyl]piperidin-1-yl}-2-(2,6-dioxopiperidin-3-yl)-2,3-dihydro-1H-isoindole-1,3-dione]
 |  |  |  | < 10 | < 50 | 50 to 70 | < 10 | CC1(Oc2ccc3[nH]nc(-c4cc(N5CCC(O[C@@H]6CCN(CC7CCN(c8ccc9c(c8)C(=O)N(C8CCC(=O)NC8=O)C9=O)CC7)C6)CC5)ncn4)c3c2)CC1 (stereo partly drawn) [Compound 116, 2-(2,6-dioxo-3-piperidyl)-5-[4-[[(3R)-3-[[1-[6-[5-(1-methylcyclopropoxy)-1H-indazol-3-yl]pyrimidin-4-yl]-4-piperidyl]oxy]pyrrolidin-1-yl]methyl]-1-piperidyl]isoindoline-1,3-dione]
 |  |  |  | < 10 | 50 to 70 | 50 to 70 | < 10 | CC1(Oc2ccc3[nH]nc(-c4ccnc(N5CCN(CC6CCN(C(=O)C7CCN(c8ccc9c(c8)C(=O)N(C8CCC(=O)NC8=O)C9=O)CC7)CC6)CC5)c4)c3c2)CC1 (centres unmarked) [Compound 91, 2-(2,6-dioxopiperidin-3-yl)-5-(4-{4-[(4-{4-[5-(1-methylcyclopropoxy)-1H-indazol-3-yl]pyridin-2-yl}piperazin-1-yl)methyl]piperidine-1-carbonyl}piperidin-1-yl)-2,3-dihydro-1H-isoindole-1,3-dione]
 |  |  |  | ≥ 100 |  |  | ≥ 100 | CC1(Oc2ccc3[nH]nc(-c4cc(N5CCC(CN6CCN(CC7CCN(c8ccc9c(c8)C(=O)N(C8CCC(=O)NC8=O)C9=O)CC7)CC6)CC5)ccn4)c3c2)CC1 (centres unmarked) [Compound 98, 2-(2,6-dioxo-3-piperidyl)-5-[4-[[4-[[1-[2-[5-(1-methylcyclopropoxy)-1H-indazol-3-yl]-4-pyridyl]-4-piperidyl]methyl]piperazin-1-yl]methyl]-1-piperidyl]isoindoline-1,3-dione]
 |  |  |  | < 10 | < 50 | < 50 | < 10 | C[C@H]1CN(c2cc(-c3n[nH]c4cc(F)c(OC5(C)CC5)cc34)ncn2)CCN1CC1(F)CCN(CC2CCN(c3ccc4c(c3)C(=O)N(C3CCC(=O)NC3=O)C4=O)CC2)CC1 (stereo partly drawn) [Compound 106, 2-(2,6-dioxo-3-piperidyl)-5-[4-[[4-fluoro-4-[[(2S)-4-[6-[6-fluoro-5-(1-methylcyclopropoxy)-1H-indazol-3-yl]pyrimidin-4-yl]-2-methyl-piperazin-1-yl]methyl]-1-piperidyl]methyl]-1-piperidyl]isoindoline-1,3-dione]
 |  |  |  | < 10 | 50 to 70 | 50 to 70 | < 10 | CC1(Oc2ccc3[nH]nc(-c4cc(N5CCC(CN6CC(CN7CCN(c8ccc9c(c8)C(=O)N(C8CCC(=O)NC8=O)C9=O)CC7)C6)CC5)ncn4)c3c2)CC1 (centres unmarked) [Compound 125, 2-(2,6-dioxo-3-piperidyl)-5-[4-[[11-[[1-[6-[5-(1-methylcyclopropoxy)-1H-indazol-3-yl]pyrimidin-4-yl]-4-piperidyl]methyl]azetidin-3-yl]methyl]piperazin-1-yl]isoindoline-1,3-dione]
 |  |  |  | 10 to 50 | < 50 | < 50 | 50 to 100 | C[C@H]1CN(c2cc(-c3n[nH]c4ccc(OC5(C)CC5)cc34)ncn2)CCN1CC1CCN(CCCNc2cccc3c2CN(C2CCC(=O)NC2=O)C3=O)CC1 (stereo partly drawn) [Compound 142, 3-[4-[3-[4-[[(2S)-2-methyl-4-[6-[5-(1-methylcyclopropoxy)-1H-indazol-3-yl]pyrimidin-4-yl]piperazin-1-yl]methyl]-1-piperidyl]propylamino]-1-oxo-isoindolin-2-yl]piperidine-2,6-dione]
 |  |  |  | < 10 | ≥ 70 | ≥ 70 | < 10 | CC1(Oc2ccc3n[nH]c(-c4cc(N5CCC(CN6CCN(CC7CCN(c8cccc9c8CN(C8CCC(=O)NC8=O)C9=O)CC7)CC6)CC5)ncn4)c3c2)CC1 (centres unmarked) [Compound 147, 3-[4-[4-[[4-[[1-[6-[5-(1-methylcyclopropoxy)-2H-indazol-3-yl]pyrimidin-4-yl]-4-piperidyl]methyl]piperazin-1-yl]methyl]-1-piperidyl]-1-oxo-isoindolin-2-yl]piperidine-2,6-dione]
 |  |  |  | < 10 | 50 to 70 | < 50 | < 10 | CC1(Oc2ccc3n[nH]c(-c4cc(N5CCN(CC6(F)CCN(CC7CN(c8ccc9c(c8)C(=O)N(C8CCC(=O)NC8=O)C9=O)C7)CC6)CC5)ncn4)c3c2)CC1 (centres unmarked) [Compound 135, 2-(2,6-dioxo-3-piperidyl)-5-[3-[[4-fluoro-4-[[4-[6-[5-(1-methylcyclopropoxy)-2H-indazol-3-yl]pyrimidin-4-yl]piperazin-1-yl]methyl]-1-piperidyl]methyl]azetidin-1-yl]isoindoline-1,3-dione]
 |  |  |  | 10 to 50 | 50 to 70 | < 50 | 10 to 50 | CC1(Oc2ccc3[nH]nc(-c4cc(N5CCN(CC(F)(F)C6CCN(CC7CCN(c8cccc9c8C(=O)N(C8CCC(=O)NC8=O)C9=O)CC7)CC6)CC5)ncn4)c3c2)CC1 (centres unmarked) [Compound 148, 4-[4-[[4-[1,1-difluoro-2-[4-[6-[5-(1-methylcyclopropoxy)-1H-indazol-3-yl]pyrimidin-4-yl]piperazin-1-yl]ethyl]-1-piperidyl]methyl]-1-piperidyl]-2-(2,6-dioxo-3-piperidyl)isoindoline-1,3-dione]
 |  |  |  | 10 to 50 | < 50 | < 50 | 10 to 50 | CC1(Oc2ccc3[nH]nc(-c4ccnc(N5CCC(C(=O)N6CCC(CC7CCN(c8ccc9c(c8)C(=O)N(C8CCC(=O)NC8=O)C9=O)CC7)CC6)CC5)c4)c3c2)CC1 (centres unmarked) [Compound 89, 2-(2,6-dioxopiperidin-3-yl)-5-(4-{[1-(1-{4-[5-(1-methylcyclopropoxy)-1H-indazol-3-yl]pyridin-2-yl}piperidine-4-carbonyl)piperidin-4-yl]methyl}piperidin-1-yl)-2,3-dihydro-1H-isoindole-1,3-dione]
